Measured values from patent US4725577A, “Biologically active lysine containing octapeptides” (Administrators of the Tulane Educational Fund, priority 1986, dated 1988).
Non-standard residues stand in square brackets, D forms with d. Residues, ends and D or L forms follow the SMILES beside them.

Columns and labels:
GH Release = assay: in vivo growth hormone bioassay in pentobarbital-anesthetized male rats, s.c. injection, plasma GH by RIA; design: species or system rat; conditions: for INHIBITION POTENCY GH in vivo: Table C, relative potency, SS-14 = 100, based on 4-point assays
Description: The in vivo growth hormone bioassay utilized is as follows:
Male Charles River CD rats (200-300 g.) with free access to food and water were anesthetized with sodium pentobarbital (60 mg.kg intraperitoneally). Thirty minutes later saline or octapeptide is injected subcutaneously and blood samples are drawn from the jugular vein 15 minutes after subcutaneous injection. The plasma is separated and assayed for growth hormone by RIA as described above. This in vivo bioassay is a modification of the methods used by Schally, et al., "Hypothalamic Peptide Hormones: Basic and Clinical Studies", "Hormonal Proteins and Peptides", C. H. Li, ed. Academic Press, N.Y. 7: 1-54, 1978; Meyers, C. A., Murphy, W. A., Redding T. W., Coy, D. H. and Schally, A. V., Proc. Natl. Acad. Sci., USA 77: 6171, 1980; Murphy, W. A., Meyers, C. A. and Coy, D. H., Endoc. 109: 491, (1981) as well as Veber et al., Pro. Natl. Acad. Sci., USA 75: 2636-2640 (1978). For some analogs, doses as low as 0.02 μg/100 g. or even 0.005 μg/ 100 g. are active. The potency of the octapeptides of this invention relative to somatostatin is illustrated in Tables A, B and C. Single dose assays are shown in Table A and 4 point assays at 2 dose levels in Tables B and C.

[1] = test system: CPZ and Morphine stimulated GH secretion; assay: potency #3, time course of CPZ and Morphine stimulated GH secretion; type: in vivo; conditions: injected dose 2.0
Excerpt: *Based on time course of CPZ and Morphine stimulated GH secretion.

[2] = test system: pentagastrin or desglugastrin-induced gastric acid output; assay: gastric acid secretion in dogs with gastric fistulae; type: in vivo
Description: In order to compare some of the biological actions of the octapeptides of the present invention and somatostatin on gastrointestinal secretions and on the release of some gastrointestinal homones in dogs, the following procedures are used:
Mongrel dogs weighing 15-20 kg. are prepared surgical with gastric (GF) and pancreatic fistulae (PF) as described by Konturek, et al., (1976) 225, 497 and Konturek, et al., Gastroenterology, (1976) 58, 1-6. Secretions from the GF and PF are collected continuously at 15 minute intervals. Hydrogen ion and pepsin concentrations in the […] are also measured in 15- or 30-minute outputs. (Konturek, et al., J. Physiol. Lond., 255, 497 (1976) and Konturek, et al., (1976) supra.). Basal secretion is first collected for two 15 minute periods, and then the secretory stimulant for gastric and/or pancreatic secretion is administered for 31/2 hours. When the secretory rate reaches a subtained plateau, the octapeptides or somatostatin are given in standard doses (2-μg/Kg/hr.). i.v. for a one hour period. […]
In tests on gastric stimulation, pentagastrin or desglugastrin (glutaroyl-Ala-Tyr-Gly-Trp-Leu-Asp-Phe-NH2) is infused i.v. in a constant dose (3 μg/kg/hr.), shown previously to elicit near maximal gastric acid secretion. Gastric secretion is measured and acid content determined by titration with 0.1N NaOH. […]

growth hormone release = assay: time course of growth hormone suppression in vivo in Nembutal-anesthetized male rats; design: species or system rat; conditions: 2 μg/100 g
Description: In order to determine the time course of the compounds of this invention, male rats are anesthetized with Nembutal and injected with saline or the test octapeptide as in the growth hormone potency assay above. Blood is collected from the jugular vein 15, 30, 45, 60, 90, 120 and 180 minutes post subcutaneous above. This time-course experiment for octapeptides on growth hormone release in vivo a significant suppression of plasma growth hormone. […] At the dose of 2 μg/100 g., the inhibitory effect of somatostatin on growth hormone release is no longer observed after 30 minutes (FIG. 1).

insulin release = assay: inhibition of insulin release in vivo in fasted male rats, i.v. injection, portal plasma insulin by RIA; design: species or system rat; conditions: Table C; relative potency, SS-14 = 100; based on 4-point assays
Description: The octapeptides of the present invention are also compared to synthetic somatostatin for their ability to inhibit the release of insulin and glucagon in vivo in male rats (CD strain, Charles River) weighing 250-300 g. The rats are kept in controlled temperature (24° C.) and light (0500-1900 h) conditions for 1 week before the assay. Rats are fasted 27-30 hours with free access to water then anesthetized with Nembutal (6 mg/100 g. intraperitoneally). After 30 minutes, saline or test peptide is injected into the jugular vein and blood is collected 5 minutes later from the hepatic portal vein then transferred into chilled tubes containing EDTA (2.5 mg/ml.) and Trasylol (500 K.I.U./ml.). Plasma is separated and stored at -20° C. until assayed for insulin and glucagon. Plasma insulin is determined by double antibody radioimmunoassay using a kit from Cambridge Medical Diagnostics.

[3] = test system: well differentiated (WD), chemically induced ductal adenocarcinoma; conditions: given twice daily or as controlled-release microcapsules; pancreatic cancer model not given; cited from earlier work

CC(=O)N[C@H](Cc1ccccc1)C(=O)N[C@@H](CS)C(=O)N[C@@H](Cc1ccccc1)C(=O)N[C@H](Cc1c[nH]c2ccccc12)C(=O)N[C@@H](CCCCN)C(=O)N[C@H](C(=O)N[C@@H](CS)C(=O)N1CCC[C@H]1C(N)=O)[C@@H](C)O [RC-76-2H, AcD-PheCysPheD-TrpLysThrCysProNH2] (Ac-[dF]CF[dW]KTCP-NH2)
INHIBITION POTENCY GH in vivo (GH Release): 1070

CC(=O)N[C@@H](Cc1ccccc1)C(=O)N[C@@H](CS)C(=O)N[C@@H](Cc1ccccc1)C(=O)N[C@H](Cc1c[nH]c2ccccc12)C(=O)N[C@@H](CCCCN)C(=O)N[C@H](C(=O)N[C@@H](CS)C(=O)N[C@H](C(N)=O)[C@@H](C)O)[C@@H](C)O [RC-101-I-2H, AcPheCysPheD-TrpLysThrCysThrNH2]
INHIBITION POTENCY GH in vivo (GH Release): 11320

CC(=O)N[C@H](Cc1ccccc1)C(=O)N[C@@H](CS)C(=O)N[C@@H](Cc1ccccc1)C(=O)N[C@H](Cc1c[nH]c2ccccc12)C(=O)N[C@@H](CCCCN)C(=O)N[C@H](C(=O)N[C@@H](CS)C(=O)N[C@H](C(N)=O)[C@@H](C)O)[C@@H](C)O [RC-101-II-2H, AcD-PheCysPheD-TrpLysThrCysThrNH2]
INHIBITION POTENCY GH in vivo (GH Release): 12900

CC(=O)N[C@@H](Cc1ccccc1)C(=O)N[C@H]1CSSC[C@@H](C(=O)N[C@H](C(N)=O)[C@@H](C)O)NC(=O)[C@H]([C@@H](C)O)NC(=O)[C@H](CCCCN)NC(=O)[C@@H](Cc2c[nH]c3ccccc23)NC(=O)[C@H](Cc2ccccc2)NC1=O [RC-101-I]
INHIBITION POTENCY GH in vivo (GH Release): 13560

CC(=O)N[C@H](Cc1ccccc1)C(=O)N[C@H]1CSSC[C@@H](C(=O)N[C@H](C(N)=O)[C@@H](C)O)NC(=O)[C@H](C(C)C)NC(=O)[C@H](CCCCN)NC(=O)[C@@H](Cc2c[nH]c3ccccc23)NC(=O)[C@H](Cc2ccc(O)cc2)NC1=O [RC-161]
INHIBITION POTENCY GH in vivo (GH Release): 5520

C[C@H](N)C(=O)NCC(=O)N[C@H]1CSSC[C@@H](C(=O)O)NC(=O)[C@H](CO)NC(=O)[C@H]([C@@H](C)O)NC(=O)[C@H](Cc2ccccc2)NC(=O)[C@H]([C@@H](C)O)NC(=O)[C@H](CCCCN)NC(=O)[C@H](Cc2c[nH]c3ccccc23)NC(=O)[C@H](Cc2ccccc2)NC(=O)[C@H](Cc2ccccc2)NC(=O)[C@H](CC(N)=O)NC(=O)[C@H](CCCCN)NC1=O [SS-14, Somatostatin]
GH-RH LEVEL [1]: 0.1032
duration of gastric acid inhibition after infusion ([2]; dogs with gastric fistulae): short-lived
inhibition of gastric acid output from the gastric fistula ([2]; i.v. infusion for one hour, pentagastrin or desglugastrin stimulation): strongly inhibit
time after which inhibitory effect on growth hormone release is no longer observed (growth hormone release): ≤ 30 min
GH Level 15' (GH Release; Potency assay #1 (89th experiment), 0.4 μg/100 g B.W., control 116 ± 10): 88 ± 22 ng/mL
GH Level 15' (GH Release; Potency assay #1, 1.6 μg/100 g B.W., control 116 ± 10): 53 ± 10 ng/mL
GH Level 15' (GH Release; Potency assay #2 (108th experiment), 0.2 μg/100 g B.W., control 211 ± 56): 171 ± 26 ng/mL
GH Level 15' (GH Release; Potency assay #2, 0.8 μg/100 g B.W., control 211 ± 56): 91 ± 12 ng/mL
GH-Level mean ± SEM (GH Release; Table A single dose assay, 2.00 μg/100 g B.W. s.c., saline control 374 ± 69): 50 ± 12 ng/mL
GH-Level mean ± SEM (GH Release; Table A single dose assay, 2.00 μg/100 g B.W. s.c., saline control 754 ± 155): 95 ± 31 ng/mL
GH-Level mean ± SEM (GH Release; Table B four-point assay, 0.4 μg/100 g B.W., saline control 277 ± 166): 86 ± 16 ng/mL
GH-Level mean ± SEM (GH Release; Table B four-point assay, 1.6 μg/100 g B.W., saline control 277 ± 166): 47 ± 17 ng/mL
INHIBITION POTENCY GH in vivo (GH Release): 100
INHIBITION POTENCY INSULIN in vivo (insulin release): 100

D-Trp-6-LH-RH
tumor weight and volume [3]: significantly decreased
